This note sets out measurements from patent US20220348970A1, “METHODS AND COMPOSITIONS FOR 3-HYDROXYPROPIONATE PRODUCTION” (The Regents of the University of California, priority 2017, published 2022).

For orientation: Km means the concentration of substrate that gives half-maximal velocity.

The target of assay [1] is T1, pyruvate decarboxylase from Gluconacetobacter diazotrophicus (4COK), SEQ ID NO: 1 (Gluconacetobacter diazotrophicus, UniProt A9H275).
T1 construct: likely strain PAl 5 (ATCC 49037 / DSM 5601)
T1 sequence (A9H275 1-558): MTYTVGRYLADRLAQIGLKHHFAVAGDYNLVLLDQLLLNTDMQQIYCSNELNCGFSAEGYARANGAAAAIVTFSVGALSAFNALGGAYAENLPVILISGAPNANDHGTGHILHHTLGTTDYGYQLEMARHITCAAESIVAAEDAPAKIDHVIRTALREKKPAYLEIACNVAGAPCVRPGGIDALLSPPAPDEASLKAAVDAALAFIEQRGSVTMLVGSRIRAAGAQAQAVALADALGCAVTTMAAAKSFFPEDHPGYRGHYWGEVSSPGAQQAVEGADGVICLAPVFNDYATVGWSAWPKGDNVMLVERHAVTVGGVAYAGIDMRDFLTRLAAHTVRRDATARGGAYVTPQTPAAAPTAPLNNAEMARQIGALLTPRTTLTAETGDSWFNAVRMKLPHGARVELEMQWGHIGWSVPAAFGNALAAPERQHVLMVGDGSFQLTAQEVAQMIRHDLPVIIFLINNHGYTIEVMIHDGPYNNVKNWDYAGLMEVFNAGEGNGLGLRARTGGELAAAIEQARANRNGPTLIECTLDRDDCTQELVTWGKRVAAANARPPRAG
The assay is described as follows: Steady-state kinetics of 4COK decarboxylase on pyruvate and oxaloacetate (ADH/NADPH coupled, 340 nm). Format: biochemical. To be noted: pH 7.2, 21° C., 0.1 mM-5 mM substrate. Here is the method:
Overnight cultures of BLR cells suspended in a 2 mL volume were transformed with a pet29b+ plasmid (encoding polypeptides of interest with a C-terminal His-tag) and grown in Terrific Broth with 50 μg/ml kanamycin. Cultures were diluted 1:1.000 in 500 ml of Terrific Broth with 1 mM MgSO4, 1% glucose and 50 μg/ml antibiotic and then grown at 37° C. for 24 hours. Cultures were pelleted down at 4,700 RPM for 10 minutes and resuspended in auto-induction media (LB broth, 1 mM MgSO4, 0.1 mM TPP, 1×NPS and 1×5052) for induction at 18° C. for 20 hours. […] Protein concentrations were determined using a Synergy H1 spectrophotometer (Biotek) by measuring absorbance at 280 nm using calculated extinction coefficients.
All substrates were dissolved in MilliQ H2O and the pH was adjusted to 7.2 as necessary. Activity for oxaloacetate, pyruvate, and 2-ketoisovalerate was measured at a 1 mM substrate concentration. […] Absorbance readings were taken at one minute intervals at 340 nm at 21° C. for 60 minutes using the Synergy H1 spectrophotometer (Biotek). Kinetic parameters (ka and Ks1) were determined by fitting initial velocity versus substrate concentration data to the Michaelis-Menten equation. […]

Assay [2] has as its target T2, OAADC A0A0D6NFJ6_9PROT, SEQ ID NO: 166 (Acetobacter indonesiensis, UniProt A0A6N3T5V0).
T2 sequence (A0A6N3T5V0 with tags, fused parts or gaps): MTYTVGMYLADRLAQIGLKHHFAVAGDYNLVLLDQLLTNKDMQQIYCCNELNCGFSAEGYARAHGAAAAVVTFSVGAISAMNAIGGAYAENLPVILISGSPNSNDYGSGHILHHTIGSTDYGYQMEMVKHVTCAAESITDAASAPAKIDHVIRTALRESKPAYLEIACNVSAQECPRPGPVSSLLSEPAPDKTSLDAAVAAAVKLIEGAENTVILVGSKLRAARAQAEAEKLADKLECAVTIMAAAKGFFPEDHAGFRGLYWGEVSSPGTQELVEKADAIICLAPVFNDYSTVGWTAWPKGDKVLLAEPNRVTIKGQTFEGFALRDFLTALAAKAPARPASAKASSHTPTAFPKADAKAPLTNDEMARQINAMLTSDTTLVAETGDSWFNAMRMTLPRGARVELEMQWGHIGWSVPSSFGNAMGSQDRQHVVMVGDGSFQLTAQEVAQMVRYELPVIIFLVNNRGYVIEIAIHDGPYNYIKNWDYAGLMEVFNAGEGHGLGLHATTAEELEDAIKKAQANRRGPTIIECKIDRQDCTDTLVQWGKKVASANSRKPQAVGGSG
The assay is described as follows: OAADC kinetics of A0A0D6NFJ6_9PROT on oxaloacetate. Format: biochemical. To be noted: pH 7.2, 21° C. Here is the method:
All substrates were dissolved in MilliQ H2O and the pH was adjusted to 7.2 as necessary. Activity for oxaloacetate, pyruvate, and 2-ketoisovalerate was measured at a 1 mM substrate concentration. The assay was performed in a 96-well half-area plate. Each reaction contained reaction buffer (100 mM HEPES, 100 mM NaCl, 10% glycerol, pH 7.2), ADH (Sigma-Aldrich, A7011, 100 U/mL for pyruvate, 600 U/mL for oxaloacetate, and 600 U/mL for 2-ketoisovalerate), and a final concentration of 0.5 mM NADPH, 0.1 mM TPP, and 1 mM MgSO4. A range of substrate concentrations (0.1 mM-5 mM) were uSEQ to perform steady-state kinetics measurement over a period of one hour. Absorbance readings were taken at one minute intervals at 340 nm at 21° C. for 60 minutes using the Synergy H1 spectrophotometer (Biotek). Kinetic parameters (ka and Ks1) were determined by fitting initial velocity versus substrate concentration data to the Michaelis-Menten equation.
A second round of genome mining was conducted as described in Example 1, except using the 4COK sequence as the input. Genes encoding candidate OAADCs were synthesized and expressed in E. coli for further characterization. OAADC activity was assayed as described in Example 1.

As for `O=C(O)CC(=O)C(=O)O` [Oxaloacetate], the Km in assay [1] and in assay [2] was greater than 20 mM throughout.
